# Experimental data published in publication PMC11533140 (Frontiers in Pharmacology, 2024).
# Like-named read-outs stand apart in the source and are kept apart here.
# What was measured:
# PI3Kα = PI3Kα (Homo sapiens, UniProt P42336); assay: in vitro PI3Kα kinase inhibition assay; format: biochemical
# Method: (§1) The in vitro inhibition assays of all final compounds against PI3K were performed by Shanghai ChemPartner Co., Ltd. (China). The antiproliferative activities of the compounds against A2780, U87MG, MCF7, and DU145 cell lines were tested by the standard MTT method. CHO cells stably expressing the transcript of hERG were investigated by the automated whole-cell patch clamp technique, using the QPatch system (Sophion). The compound was tested with Salmonella typhimurium strains TA98 and TA100 with the plate incorporation method at seven doses. Apoptosis was evaluated using the One-Step TUNEL Apoptosis Assay Kit (FITC) (cat. no. MA0223; Meilunbio, Dalian, China), according to the manufacturer’s protocol. Male and female SD rats (SLRC Laboratory Animal Inc., Shanghai, China) were used, and the detailed pharmacokinetic procedures are described in Supplementary Material.
# MCF7 cells = assay: MTT antiproliferative assay, MCF7; format: cell-based; settings: Homo sapiens
# Method: as §1
# A2780 cells = assay: MTT antiproliferative assay, A2780; format: cell-based; settings: Homo sapiens
# Method: as §1
# DU145 cells = assay: MTT antiproliferative assay, DU145; format: cell-based; settings: for IC50: Homo sapiens, DU-145
# Method: as §1
# U87MG cells = assay: MTT antiproliferative assay, U87MG; format: cell-based; settings: for IC50: Homo sapiens, U-87 MG
# Method: as §1
# [1] = test system: Salmonella typhimurium TA100; assay: Ames test, plate incorporation, TA100; format: cell-based; settings: control, dose not given
# Method: as §1
# (§2) S. typhimurium TA98 and TA100 were selected to conduct the Ames experiment to investigate the genotoxicity risk of compound 17p.
# HL-7702 cells = assay: inhibitory activity on normal cells, HL-7702; format: cell-based; settings: Homo sapiens, L02
# Description: (§3) Several clinical PI3K candidates were severely intolerable to patients due to fatal hepatotoxicity and, thus, failed in clinical trials. Thus, evaluating the selectivity of compounds toward normal cells might reduce the risk of clinical failure of new compounds.
# MRC-5 cells = assay: inhibitory activity on normal cells, MRC-5; format: cell-based; settings: Homo sapiens, MRC5
# Description: as §3
# [2] = test system: Salmonella typhimurium TA98; assay: Ames test, plate incorporation, TA98; format: cell-based; settings: control, dose not given
# Method: as §1, §2
# [3] = mean of three independent experiments
# [4] = mean of three independent experiments, read-out: IC50 against PI3Kα
# [5] = Figure 5 activity bins, read-out: IC50 range in SAR figure (PI3Kα)
# Chain of PI3Kα (P42336 whole entry): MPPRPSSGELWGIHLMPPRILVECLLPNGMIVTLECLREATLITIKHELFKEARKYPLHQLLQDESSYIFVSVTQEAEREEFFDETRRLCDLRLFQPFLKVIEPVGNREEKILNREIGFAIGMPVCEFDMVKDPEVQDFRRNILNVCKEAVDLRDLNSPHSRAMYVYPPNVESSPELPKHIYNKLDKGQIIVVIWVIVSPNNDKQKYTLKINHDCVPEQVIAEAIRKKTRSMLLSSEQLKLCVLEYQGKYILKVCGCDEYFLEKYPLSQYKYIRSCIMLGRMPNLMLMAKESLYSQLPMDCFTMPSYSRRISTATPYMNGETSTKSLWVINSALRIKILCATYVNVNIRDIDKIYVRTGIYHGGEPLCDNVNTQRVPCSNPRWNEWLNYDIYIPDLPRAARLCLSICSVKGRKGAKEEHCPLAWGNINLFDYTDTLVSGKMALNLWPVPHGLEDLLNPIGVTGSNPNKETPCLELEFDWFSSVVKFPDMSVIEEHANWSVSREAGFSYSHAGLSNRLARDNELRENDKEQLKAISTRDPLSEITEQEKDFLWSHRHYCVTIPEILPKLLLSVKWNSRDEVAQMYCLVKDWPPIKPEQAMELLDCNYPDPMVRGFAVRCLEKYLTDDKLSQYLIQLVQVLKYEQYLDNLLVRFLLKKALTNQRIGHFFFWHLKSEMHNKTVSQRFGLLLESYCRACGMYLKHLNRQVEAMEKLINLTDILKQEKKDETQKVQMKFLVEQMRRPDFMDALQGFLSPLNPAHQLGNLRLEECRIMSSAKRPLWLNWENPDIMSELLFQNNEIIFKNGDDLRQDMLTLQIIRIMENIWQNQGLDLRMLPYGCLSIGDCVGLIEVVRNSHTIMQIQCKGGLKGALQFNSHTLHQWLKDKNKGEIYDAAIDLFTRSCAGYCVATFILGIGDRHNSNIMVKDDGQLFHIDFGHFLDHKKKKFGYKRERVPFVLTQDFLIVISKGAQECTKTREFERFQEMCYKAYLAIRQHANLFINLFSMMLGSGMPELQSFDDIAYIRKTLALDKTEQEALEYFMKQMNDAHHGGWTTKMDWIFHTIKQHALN
# Chain of PI3Kα (P27986 whole entry partner): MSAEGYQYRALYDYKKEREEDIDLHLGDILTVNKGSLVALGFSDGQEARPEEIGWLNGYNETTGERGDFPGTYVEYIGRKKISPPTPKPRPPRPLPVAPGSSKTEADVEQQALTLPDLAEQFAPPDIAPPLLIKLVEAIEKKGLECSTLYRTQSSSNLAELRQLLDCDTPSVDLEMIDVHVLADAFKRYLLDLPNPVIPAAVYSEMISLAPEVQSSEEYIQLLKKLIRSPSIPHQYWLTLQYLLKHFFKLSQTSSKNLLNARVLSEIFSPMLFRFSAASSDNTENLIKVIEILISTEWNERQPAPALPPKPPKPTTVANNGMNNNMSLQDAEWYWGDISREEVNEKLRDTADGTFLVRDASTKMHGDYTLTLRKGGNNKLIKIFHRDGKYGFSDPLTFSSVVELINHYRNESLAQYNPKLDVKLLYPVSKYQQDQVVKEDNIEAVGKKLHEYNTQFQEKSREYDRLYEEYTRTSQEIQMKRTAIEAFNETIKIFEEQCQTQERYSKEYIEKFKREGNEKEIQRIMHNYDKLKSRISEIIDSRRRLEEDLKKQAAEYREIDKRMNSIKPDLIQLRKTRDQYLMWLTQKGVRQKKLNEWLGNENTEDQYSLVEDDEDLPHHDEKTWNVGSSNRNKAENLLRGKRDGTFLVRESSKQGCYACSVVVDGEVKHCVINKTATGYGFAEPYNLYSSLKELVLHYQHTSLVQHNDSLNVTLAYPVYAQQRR
structure (smiles),measurement,setting,value
c1nn(C2CCNCC2)cc1-c1nc(N2CCOCC2)nc(N2CCOCC2)n1 [Compound 12e],IC50 against PI3Kα,PI3Kα; [3],no activity
same,IC50,PI3Kα; [4],> 10000 nM
N#Cc1c(-c2ccc(N)cc2)nc(N2CCOCC2)nc1N1CCOCC1 [Compound 17h],IC50,PI3Kα; [5],400 to 800 nM
same,IC50,PI3Kα; [4],477 ± 52.4 nM
c1nn(C2CCNCC2)cc1-c1cc(N2CCOCC2)nc(N2CCOCC2)n1 [Compound 12c],IC50 against PI3Kα,PI3Kα; [3],no activity
same,IC50,PI3Kα; [4],> 10000 nM
N#Cc1c(-c2ccc(N)nc2)nc(N2CCOCC2)nc1N1CCOCC1 [Compound 17k],IC50,PI3Kα; [5],30 to 300 nM
same,IC50,PI3Kα; [4],159 ± 14.4 nM
N#Cc1c(-c2ccc(O)cc2)nc(N2CCOCC2)nc1N1CCOCC1 [Compound 17f],IC50,PI3Kα; [5],400 to 800 nM
same,IC50,PI3Kα; [4],473 ± 28.3 nM
N#Cc1c(-c2cnc(N)cc2C(F)(F)F)nc(N2CCOCC2)nc1N1CCOCC1 [Compound 17m],IC50,MCF7 cells,1070 ± 90 nM
same,IC50,A2780 cells,2720 ± 190 nM
same,IC50,PI3Kα; [5],30 to 300 nM
same,IC50,PI3Kα; [4],104 ± 12.5 nM
same,IC50 DU145,DU145 cells,no inhibitory effects
same,IC50,DU145 cells,12400 ± 1470 nM
same,IC50 U87MG,U87MG cells,no inhibitory effects
same,IC50,U87MG cells,66100 ± 9940 nM
CCOC(=O)C1CCN(c2cc(-c3cnc(N)cc3C(F)(F)F)nc(N3CCOCC3)n2)CC1 [Compound 12a],IC50,PI3Kα; [4],2290 nM
CCOC(=O)C1CCN(c2nc(-c3cnc(N)cc3C(F)(F)F)nc(N3CCOCC3)n2)CC1 [Compound 12f],IC50,PI3Kα; [4],371 ± 45.4 nM
Cc1cc(N)ncc1-c1nc(N2CCOCC2)nc(N2CCOCC2)c1C#N [Compound 17l],IC50,PI3Kα; [5],400 to 800 nM
same,IC50,PI3Kα; [4],443 ± 39.7 nM
"Nc1cc(C(F)(F)F)c(-c2cc(N3CCOCC3)nc(N3CCOCC3)n2)cn1 [BKM-120, Buparlisib, reference compound]",Number of bacterial colony revertant mutations (mean ± SD) TA100,[1],555 ± 94
same,IC50,HL-7702 cells,890 ± 60 nM
same,IC50,MCF7 cells,280 ± 40 nM
same,IC50,A2780 cells,410 ± 60 nM
same,IC50,DU145 cells,2240 ± 140 nM
same,IC50,U87MG cells,2150 ± 190 nM
same,IC50,MRC-5 cells,980 ± 100 nM
same,Number of bacterial colony revertant mutations (mean ± SD) TA98,[2],241 ± 55
N#Cc1c(-c2cnn(C3CCNCC3)c2)nc(N2CCOCC2)nc1N1CCOCC1 [Compound 17d],IC50 range in SAR figure (PI3Kα),PI3Kα; Figure 5 activity bins,no activity
same,IC50,PI3Kα; [4],> 10000 nM
COc1cccc(-c2nc(N3CCOCC3)nc(N3CCOCC3)c2C#N)c1 [Compound 17g],IC50,"PI3Kα; Figure 5 activity bins, read-out: weak activity IC50 in SAR figure (PI3Kα)",> 1000 nM
same,IC50,PI3Kα; [4],3270 nM
